From patent US9682961B2, “Quinazoline derivative” (CARNA BIOSCIENCES, INC., priority 2013, dated 2017) come the findings set out here.

By inhibition is commonly meant the percentage by which the read-out fell short of the control.

Test [1] relates to AXIN2 protein expression. As to the kind of experiment: Expression level of Wnt/β-catenin target protein AXIN2 by western blotting in HCT116 cells. Particulars: Homo sapiens, 24 hours, read-out: Inhibition rate (%) AXIN2 protein. The test is classed as cell-based. As for the experimental part:
Expression levels of target proteins of the Wnt/β-catenin signaling pathway was analyzed by western blotting method, and effects of the compound of the present invention on Wnt/β-catenin signaling activity were studied by using a change of these levels as an indicator. HCT116 cells cultured in the same manner as in Test Example 2 were diluted with the medium 1 so as to have a cell concentration of 5×10^5 cells/mL, and 5 mL of the diluted cells were seeded into T25 flasks, followed by culturing overnight in the 5% CO2 incubator. Next day, solutions of the compound to be tested obtained by diluting 10 and 3 mM DMSO stock solutions of the compound to be tested 100-fold with the medium 1 were added to each flask so that the amount of the solution in the flask was one tenth of the amount of the final solution (final concentrations of the compound to be tested: 10 and 3 μM). […] Supernatant was recovered by centrifugal operation (15,000 rpm, 10 min.) and amounts of proteins were determined. […] Thereafter, using a CCD camera (GE Healthcare Co., ImageQuant LAS 500), the respective bands were detected by chemiluminescence. The detected bands were quantified by densitometry (GE Healthcare Co., ImageQuant TL v8.1.0.0). Inhibition rates were calculated from the intensities of the bands in the respective groups, with the luminescence of the band of the DMSO added group being 100%. […]
(In general: Immunoblotting shows a protein as a band on a membrane.)

The test system of test [2] is human-derived colorectal cancer cell line HCT116. The test can be described thus: Antitumor effects in mice model subcutaneously transplanted with human-derived cancer cell line. The test is classed as in vivo. Particulars: oral, twice a day for 14 days, HCT116 nude mice. As for the experimental part: The antitumor effects of the compound of the present invention were studied using nude mice subcutaneously transplanted with a human-derived colorectal cancer cell line HCT116, in which the Wnt signaling pathway was constantly activated.
HCT116 cells cultured in the same manner as in Test Example 2 were adjusted with D-PBS (NACALAI TESQUE, INC.) so as to have a cell concentration of 7.5×10^7/mL, and the cell suspension was ice cooled in a 15 mL tube. To the cell suspension, Matrigel (BD Biosciences Co.) was added in an amount of one-fourth of the cell suspension to prepare a preparation for cell transplantation. Into the back of BALB/c Slc-nu/nu mice (female, 8 weeks old, Japan SLC, Inc.), 0.1 mL of the preparation for cell transplantation was subcutaneously injected. […]
To the respective mice transplanted with cancer cells (nine in each group), forced oral administration of doses of the substance to be tested calculated from their body weights was performed twice a day (at intervals of six hours or more) for 14 days in total. Tumor volumes of the respective mice were calculated using the following formulas, and the antitumor effects were evaluated using a relative tumor volume ratio as an indicator.

Structures are written as SMILES.

`O[C@H]1CC[C@@H](Oc2cccc3cnc(Nc4ccc5nc[nH]c5c4)nc23)CC1` [Example 1, cis-4-({2-[(1H-benzo[d]imidazol-6-yl)amino]quinazolyn-8-yl}oxy)cyclohexanol]: the inhibition at 3 µM in test [1] (HCT-116, 3 μM) was found to be 46.1%. Also, the inhibition at 10 µM in test [1] (HCT-116, 10 μM) is 66.9%. Also, the “Tumor growth inhibition rate (TGI) on the last administration day” value was found to be 42% in test [2] (40 mg/kg) and 70% in test [2] (80 mg/kg).
